In paper PMC6934184, “Selective DNA-PKcs inhibition extends the therapeutic index of localized radiotherapy and chemotherapy” (The Journal of Clinical Investigation, 2019):

Target: T1, PRKACB (PRKAC beta) (Homo sapiens, UniProt P22694)
T1 construct: purchased Thermo Fisher Scientific (Life Technologies) SelectScreen
Assay: SelectScreen LanthaScreen
Type: binding
Conditions: read-out: % displacement
Summary of the method: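 NU5455 was profiled across the SelectScreen Broad panel of kinase activity and binding assays. Z'LYTE reactions such as CSF1R ran at apparent Km ATP, while the Adapta CAMK1 assay used ATP listed as 10. Values are given as percent.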

## CN(C(=O)CN1CCOCC1)c1ccc2sc3c(-c4cccc5c(=O)cc(N6CC7CCC(C6)O7)oc45)cccc3c2c1 [NU5455]
  inhibition at 1 µM: -6.8%
